≈ marks a conversion by molar mass, not a printed value.
Assays:
[1] = tested on: Mycobacterium tuberculosis; experiment: Antituberculosis activity against Mycobacterium tuberculosis H37Rv by broth dilution method; format: functional
[2] = microbe, parasite or virus in culture; format: functional, Mycobacterium bovis BCG str. Tokyo 172; settings: Mycobacterium tuberculosis variant bovis BCG
Description: (§1) Antibacterial activity against Mycobacterium bovis BCG str. Tokyo 172 by broth dilution method

Mycobacterium avium [3] = experiment: Antibacterial activity against Mycobacterium avium 724S by broth dilution method; format: functional
Mycobacterium avium [4] = experiment: Antibacterial activity against Mycobacterium avium SmO by broth dilution method; format: functional
[5] = tested on: Mycolicibacterium smegmatis; experiment: Antibacterial activity against Mycobacterium smegmatis by broth dilution method; format: functional
Staphylococcus aureus [6] = experiment: Antibacterial activity against Staphylococcus aureus by broth dilution method; format: functional
Escherichia coli [7] = experiment: Antibacterial activity against Escherichia coli by broth dilution method; format: functional
[8] = Selectivity for Mycobacterium tuberculosis H37Rv over human THP1 cells; parameters: species or system THP-1; reference not given here
[9] = Selectivity for Mycobacterium tuberculosis H37Rv over human A549 cells; parameters: reference not given here
[10] = Selectivity for Mycobacterium tuberculosis H37Rv over human MRC5 cells; parameters: reference not given here
[11] = tested on: Mycobacterium tuberculosis; experiment: Antimycobacterial activity against drug-susceptive Mycobacterium tuberculosis isolate A-1-1 by agar proportion method; format: functional
[12] = tested on: Mycobacterium tuberculosis; experiment: Antimycobacterial activity against drug-susceptive Mycobacterium tuberculosis isolate A-1-2 by agar proportion method; format: functional
[13] = tested on: Mycobacterium tuberculosis; experiment: Antimycobacterial activity against drug-susceptive Mycobacterium tuberculosis isolate A-3-5 by agar proportion method; format: functional
[14] = tested on: Mycobacterium tuberculosis; experiment: Antimycobacterial activity against drug-susceptive Mycobacterium tuberculosis isolate A-3-11 by agar proportion method; format: functional
[15] = tested on: Mycobacterium tuberculosis; experiment: Antimycobacterial activity against drug-susceptive Mycobacterium tuberculosis isolate A-3-12 by agar proportion method; format: functional
[16] = tested on: Mycobacterium tuberculosis; experiment: Antimycobacterial activity against drug-susceptive Mycobacterium tuberculosis isolate A-3-13 by agar proportion method; format: functional
[17] = tested on: Mycobacterium tuberculosis; experiment: Antimycobacterial activity against drug-susceptive Mycobacterium tuberculosis isolate A-3-15 by agar proportion method; format: functional
[18] = tested on: Mycobacterium tuberculosis; experiment: Antimycobacterial activity against drug-susceptive Mycobacterium tuberculosis isolate A-3-16 by agar proportion method; format: functional
[19] = tested on: Mycobacterium tuberculosis; experiment: Antimycobacterial activity against drug-susceptive Mycobacterium tuberculosis isolate A-3-20 by agar proportion method; format: functional
[20] = tested on: Mycobacterium tuberculosis; experiment: Antimycobacterial activity against drug-susceptive Mycobacterium tuberculosis isolate A-3-21 by agar proportion method; format: functional
[21] = tested on: Mycobacterium tuberculosis; experiment: Antimycobacterial activity against drug-susceptive Mycobacterium tuberculosis isolate A-3-22 by agar proportion method; format: functional
[22] = tested on: Mycobacterium tuberculosis; experiment: Antimycobacterial activity against drug-susceptive Mycobacterium tuberculosis isolate A-3-9 by agar proportion method; format: functional
[23] = tested on: Mycobacterium tuberculosis; experiment: Antimycobacterial activity against drug-susceptive Mycobacterium tuberculosis isolate A-1-3 by agar proportion method; format: functional
[24] = tested on: Mycobacterium tuberculosis; experiment: Antimycobacterial activity against drug-susceptive Mycobacterium tuberculosis isolate A-2-5 by agar proportion method; format: functional
[25] = tested on: Mycobacterium tuberculosis; experiment: Antimycobacterial activity against drug-susceptive Mycobacterium tuberculosis isolate A-3-1 by agar proportion method; format: functional
[26] = tested on: Mycobacterium tuberculosis; experiment: Antimycobacterial activity against drug-susceptive Mycobacterium tuberculosis isolate A-3-2 by agar proportion method; format: functional
[27] = tested on: Mycobacterium tuberculosis; experiment: Antimycobacterial activity against drug-susceptive Mycobacterium tuberculosis isolate A-3-6 by agar proportion method; format: functional
[28] = tested on: Mycobacterium tuberculosis; experiment: Antimycobacterial activity against drug-susceptive Mycobacterium tuberculosis isolate A-3-17 by agar proportion method; format: functional
[29] = tested on: Mycobacterium tuberculosis; experiment: Antimycobacterial activity against drug-susceptive Mycobacterium tuberculosis isolate A-3-19 by agar proportion method; format: functional
[30] = tested on: Mycobacterium tuberculosis; settings: H37Rv
[31] = tested on: Mycobacterium bovis BCG str. Tokyo 172
Description: as §1

Mycobacterium avium [32] = settings: 724S
Mycobacterium avium [33] = settings: SmO
[34] = tested on: Mycolicibacterium smegmatis
Staphylococcus aureus [35] = tested on: Staphylococcus aureus
Escherichia coli [36] = tested on: Escherichia coli

Row | Compound | MIC [1] [µg/mL] | MIC [2] [µg/mL] | MIC (Mycobacterium avium [3]) [µg/mL] | MIC (Mycobacterium avium [4]) [µg/mL] | MIC [5] [µg/mL] | MIC (Staphylococcus aureus [6]) [µg/mL] | MIC (Escherichia coli [7]) [µg/mL] | Ratio [8] | Ratio [9] | Ratio [10] | further results
1 | CC(=O)N[C@@H]1[C@@H](O)[C@H](O)[C@@H](CSC(=S)N(C)C)O[C@H]1SC(=S)N(C)C | 25 (≈ 58.5 µM) | > 100 | > 100 | > 100 | > 100 | > 100 | > 100 | – | – | – | –
2 | CC(=O)N[C@@H]1[C@@H](OC(C)=O)[C@H](OC(C)=O)[C@@H](COC(C)=O)O[C@H]1SC(=S)N(C)C | > 100 | > 100 | > 100 | > 100 | > 100 | > 100 | > 100 | – | – | – | –
3 | CC(=O)N[C@@H]1[C@@H](O)[C@H](O)[C@@H](CO)O[C@H]1SC(=S)N(C)C | 25 (≈ 77.1 µM) | 31.3 (≈ 96.5 µM) | > 100 | > 100 | > 100 | > 100 | > 100 | 242 | 188 | 28 | MIC [11]: 6.25 µg/mL (≈ 19.3 µM); MIC [12]: 6.25 µg/mL (≈ 19.3 µM); MIC [13]: 6.25 µg/mL (≈ 19.3 µM); MIC [14]: 6.25 µg/mL (≈ 19.3 µM); MIC [15]: 6.25 µg/mL (≈ 19.3 µM); MIC [16]: 6.25 µg/mL (≈ 19.3 µM); MIC [17]: 6.25 µg/mL (≈ 19.3 µM); MIC [18]: 6.25 µg/mL (≈ 19.3 µM); MIC [19]: 6.25 µg/mL (≈ 19.3 µM); MIC [20]: 6.25 µg/mL (≈ 19.3 µM); MIC [21]: 6.25 µg/mL (≈ 19.3 µM); MIC [22]: 6.25 µg/mL (≈ 19.3 µM); MIC [23]: 6.25 µg/mL (≈ 19.3 µM); MIC [24]: 6.25 µg/mL (≈ 19.3 µM); MIC [25]: 6.25 µg/mL (≈ 19.3 µM); MIC [26]: 6.25 µg/mL (≈ 19.3 µM); MIC [27]: 6.25 µg/mL (≈ 19.3 µM); MIC [28]: 12.5 µg/mL (≈ 38.5 µM); MIC [29]: 6.25 µg/mL (≈ 19.3 µM)
4 | CC(=O)N[C@H]1[C@H](OC(C)=O)O[C@H](COC(C)=O)[C@@H](OC(C)=O)[C@@H]1OC(C)=O | > 100 | > 100 | – | – | > 100 | – | – | – | – | – | –
5 | CC(=O)N[C@@H]1[C@@H](O)[C@@H](O)[C@@H](CO)O[C@H]1SC(=S)N(C)C | 12.5 (≈ 38.5 µM) | 25 (≈ 77.1 µM) | > 100 | > 100 | > 100 | > 100 | > 100 | – | – | – | –
6 | CC(=O)N[C@H]1[C@@H](O)[C@H](O)[C@@H](CO)O[C@@H]1SC(=S)N(C)C | > 100 | > 100 | > 100 | > 100 | > 100 | > 100 | > 100 | – | – | – | –
7 | NCC[C@H](O)C(=O)N[C@@H]1C[C@H](N)[C@@H](O[C@H]2O[C@H](CN)[C@@H](O)[C@H](O)[C@H]2O)[C@H](O)[C@H]1O[C@H]1O[C@H](CO)[C@@H](O)[C@H](N)[C@H]1O [AMIKACIN] | 1.75 (≈ 2.99 µM) | 0.78 (≈ 1.33 µM) | > 100 | 1.56 (≈ 2.66 µM) | 1.25 (≈ 2.13 µM) | 100 (≈ 171 µM) | 50 (≈ 85.4 µM) | – | – | – | –
8 | Nc1ccc(C(=O)O)c(O)c1 [AMINOSALICYLIC ACID] | 0.16 (≈ 1.04 µM) | 50 (≈ 327 µM) | 100 (≈ 653 µM) | 100 (≈ 653 µM) | 1000 (≈ 6530 µM) | > 100 | > 100 | – | – | – | –
9 | CNC.Cl [DIMETHYLAMINE HCL] | > 100 | > 100 | – | – | > 100 | – | – | – | – | – | –
10 | CNC [DIMETHYLAMINE] | > 100 | > 100 | – | – | > 100 | – | – | – | – | – | –
11 | CC[C@@H](CO)NCCN[C@@H](CC)CO [ETHAMBUTOL] | 2.5 (≈ 12.2 µM) | 1.5 (≈ 7.34 µM) | 3.13 (≈ 15.3 µM) | 1.56 (≈ 7.64 µM) | 12.5 (≈ 61.2 µM) | > 100 | > 100 | 916 | 1434 | 111 | –
12 | NNC(=O)c1ccncc1 [ISONIAZID] | 0.04 (≈ 0.292 µM) | 0.04 (≈ 0.292 µM) | 50 (≈ 365 µM) | 3.13 (≈ 22.8 µM) | 6.25 (≈ 45.6 µM) | > 100 | > 100 | 53613 | 77277 | 7325 | –
13 | NC[C@H]1O[C@H](O[C@H]2[C@H](O)[C@@H](O[C@H]3O[C@H](CO)[C@@H](O)[C@H](N)[C@H]3O)[C@H](N)C[C@@H]2N)[C@H](O)[C@@H](O)[C@@H]1O [KANAMYCIN] | 1.56 (≈ 3.22 µM) | 0.3 (≈ 0.619 µM) | > 100 | 1.56 (≈ 3.22 µM) | 3.13 (≈ 6.46 µM) | 12.5 (≈ 25.8 µM) | 12.5 (≈ 25.8 µM) | – | – | – | –
14 | CO[C@H]1/C=C/O[C@@]2(C)Oc3c(C)c(O)c4c(O)c(c(/C=N/N5CCN(C)CC5)c(O)c4c3C2=O)NC(=O)/C(C)=C\C=C\[C@H](C)[C@H](O)[C@@H](C)[C@@H](O)[C@@H](C)[C@H](OC(C)=O)[C@@H]1C [RIFAMPIN] | 0.004 (≈ 0.00486 µM) | 0.004 (≈ 0.00486 µM) | < 0.05 | 0.004 (≈ 0.00486 µM) | 1.56 (≈ 1.9 µM) | 0.002 (≈ 0.00243 µM) | 50 (≈ 60.8 µM) | 16256 | 44510 | 16250 | –
15 | CN(C)C(=S)[S-].[Na+] [SODIUM DIMETHYLCARBAMODITHIOATE] | 0.78 | 0.78 | – | – | > 100 | > 100 | > 100 | 88 | 318 | 14 | –
16 | CN[C@@H]1[C@H](O[C@H]2[C@H](O[C@H]3[C@H](O)[C@@H](O)[C@H](N=C(N)N)[C@@H](O)[C@@H]3N=C(N)N)O[C@@H](C)[C@]2(O)C=O)O[C@@H](CO)[C@H](O)[C@H]1O [STREPTOMYCIN] | 0.39 (≈ 0.671 µM) | 0.2 (≈ 0.344 µM) | 0.39 (≈ 0.671 µM) | 0.39 (≈ 0.671 µM) | 0.39 (≈ 0.671 µM) | 50 (≈ 86 µM) | 50 (≈ 86 µM) | 18367 | 32154 | 4282 | –
17 | GENTAMICIN | – | – | – | – | – | – | – | – | – | – | MIC [30]: 3.13 µg/mL; MIC [31]: 1.56 µg/mL; MIC (Mycobacterium avium [32]): 25 µg/mL; MIC (Mycobacterium avium [33]): 1.56 µg/mL; MIC [34]: 1.56 µg/mL; MIC (Staphylococcus aureus [35]): 25 µg/mL; MIC (Escherichia coli [36]): 6.25 µg/mL
